Source: PubChem BioAssay AID330 (DTP/NCI, 2004)
Values joined by “and” are separate entries in the source; they are usually repeats but may differ in a detail not shown here. Equal entries are not always repeated. Toxic doses and inconclusive results are not listed. Rule for the calls: active = survival T/C of 150% or more; inactive = T/C below 125% in these data. Square brackets hold non-standard residues; d marks the D form. Peptide text beside a SMILES is read from it. * marks the point of attachment. Ac5c = NC1(C(=O)O)CCCC1; CH2Cl = ClC*

Tested on: P388 leukemia ip, CD2F1 mice, survival T/C
Experiment: NCI In Vivo Anticancer Drug Screen. Data for tumor model P388 Leukemia (intraperitoneal) in CD2F1 (CDF1) mice
Conditions: endpoint: median survival time, higher = longer survival
In short: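 Mice carrying the transplanted tumor received test compound or vehicle. Survival was recorded in each group, and the value is the treated-group measurement divided by that of the vehicle-treated control group.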

[1] = dose: 50.0 mg/kg/injection, schedule: Q01DX009 (ip), vehicle: saline
[2] = dose: 100.0 mg/kg/injection, schedule: Q01DX009 (ip), vehicle: saline
[3] = dose: 200.0 mg/kg/injection, schedule: Q01DX009 (ip), vehicle: saline
[4] = dose: 50.0 mg/kg/injection, schedule: Q01DX005 (ip), vehicle: saline
[5] = dose: 100.0 mg/kg/injection, schedule: Q01DX005 (ip), vehicle: saline
[6] = dose: 50.0 mg/kg/injection, schedule: Q01DX005 (ip), vehicle: Klucel (hydroxypropylcellulose) (HPC)
[7] = dose: 100.0 mg/kg/injection, schedule: Q01DX005 (ip), vehicle: Klucel (hydroxypropylcellulose) (HPC)
[8] = dose: 200.0 mg/kg/injection, schedule: Q01DX005 (ip), vehicle: Klucel (hydroxypropylcellulose) (HPC)
[9] = dose: 100.0 mg/kg/injection, schedule: Q04DX002 (ip), vehicle: saline with Tween-80
[10] = dose: 200.0 mg/kg/injection, schedule: Q04DX002 (ip), vehicle: saline with Tween-80
[11] = dose: 50.0 mg/kg/injection, schedule: Q01DX009 (ip), vehicle: saline with Tween-80
[12] = dose: 100.0 mg/kg/injection, schedule: Q01DX009 (ip), vehicle: saline with Tween-80
[13] = dose: 200.0 mg/kg/injection, schedule: Q01DX009 (ip), vehicle: saline with Tween-80
[14] = dose: 12.5 mg/kg/injection, schedule: Q01DX009 (ip), vehicle: Klucel (hydroxypropylcellulose) (HPC)
[15] = dose: 25.0 mg/kg/injection, schedule: Q01DX009 (ip), vehicle: Klucel (hydroxypropylcellulose) (HPC)
[16] = dose: 60.0 mg/kg/injection, schedule: Q01DX005 (ip), vehicle: saline with Tween-80
[17] = dose: 120.0 mg/kg/injection, schedule: Q01DX005 (ip), vehicle: saline with Tween-80
[18] = dose: 60.0 mg/kg/injection, schedule: Q01DX005 (ip), vehicle: Klucel (hydroxypropylcellulose) (HPC)
[19] = dose: 120.0 mg/kg/injection, schedule: Q01DX005 (ip), vehicle: Klucel (hydroxypropylcellulose) (HPC)
[20] = dose: 50.0 mg/kg/injection, schedule: Q01DX009 (ip), vehicle: Klucel (hydroxypropylcellulose) (HPC)
[21] = dose: 50.0 mg/kg/injection, schedule: Q01DX009 (ip), vehicle: other
[22] = dose: 100.0 mg/kg/injection, schedule: Q01DX009 (ip), vehicle: Klucel (hydroxypropylcellulose) (HPC)
[23] = dose: 200.0 mg/kg/injection, schedule: Q01DX009 (ip), vehicle: Klucel (hydroxypropylcellulose) (HPC)
[24] = dose: 240.0 mg/kg/injection, schedule: Q01DX005 (ip), vehicle: saline with Tween-80

Measured: T/C

FC(F)(F)c1cccc(N=Cc2ccc(C=Nc3cccc(C(F)(F)F)c3)cc2)c1
inactive: [1] 99 % of control | [2] 99 % of control | [3] 97 % of control

CC(=O)OC1CC2C(=S)Nc3cc4c(cc3C(=O)N2C1)OCO4 (stereo unspecified)
inactive: dose: 50.0 mg/kg/injection, schedule: Q01DX005 (ip), vehicle: saline with Tween-80 92 % of control | dose: 100.0 mg/kg/injection, schedule: Q01DX005 (ip), vehicle: saline with Tween-80 91 % of control | dose: 200.0 mg/kg/injection, schedule: Q01DX005 (ip), vehicle: saline with Tween-80 89 % of control

CCOc1c(N=Nc2ccc(Cl)cc2Cl)c(C)nn1C(N)=S
inactive: dose: 15.0 mg/kg/injection, schedule: Q01DX005 (ip), vehicle: Klucel (hydroxypropylcellulose) (HPC) 95 % of control | dose: 30.0 mg/kg/injection, schedule: Q01DX005 (ip), vehicle: Klucel (hydroxypropylcellulose) (HPC) 90 % of control

CCC(/C=N/N=C(N)N)=N\N=C(N)N
inactive: [4] 110 % of control | [5] 100 % of control

COC(=O)c1cc(-c2ccncc2)[nH]c(=O)c1C#N
inactive: dose: 60.0 mg/kg/injection, schedule: Q01DX005 (ip), vehicle: saline 101 % of control | dose: 120.0 mg/kg/injection, schedule: Q01DX005 (ip), vehicle: saline 99 % of control | dose: 240.0 mg/kg/injection, schedule: Q01DX005 (ip), vehicle: saline 94 % of control

Cn1c(O)c2c(c1O)C(=Nc1ccccc1)c1ccccc1C2=O
inactive: [6] 86 % of control | [7] 89 % of control | [8] 94 % of control

CC1C(=O)OC2C1CCC1(C)C=C(Cl)C(=O)C(C)(Cl)C21O (stereo unspecified)
inactive: dose: 50.0 mg/kg/injection, schedule: Q04DX002 (ip), vehicle: saline with Tween-80 111 % of control | [9] 107 % of control | [10] 100 % of control

CCN(CC)Cc1cc(C)c(O)c(N=Nc2ccc3c(c2)c2ccccc2n3CC)c1C
inactive: [11] 102 % of control | [12] 110 % of control | [13] 101 % of control

CC(=O)NC(CC(C)C)C(=O)NC(Cc1ccccc1)C(=O)CCl (stereo not drawn) (Ac-Leu-Phe-CH2Cl; configuration not given here)
inactive: dose: 3.12 mg/kg/injection, schedule: Q01DX009 (ip), vehicle: Klucel (hydroxypropylcellulose) (HPC) 103 % of control | dose: 6.25 mg/kg/injection, schedule: Q01DX009 (ip), vehicle: Klucel (hydroxypropylcellulose) (HPC) 113 % of control | [14] 120 % of control | [15] 116 % of control

CN(C)c1ccc(C(c2cc3c(cc2O)OCO3)N2CCCCC2)cc1 (stereo unspecified)
inactive: [16] 113 % of control | [17] 121 % of control

c1ccc2c(SCCSc3c4ccccc4nc4ccccc34)c3ccccc3nc2c1
inactive: [18] 90 % of control | [19] 96 % of control

Cc1ccc(CCN2CSC(=S)N(CCc3ccc(C)cc3)C2)cc1
inactive: [14] 101 % of control | [15] 96 % of control | [20] 100 % of control | [21] 96 % of control

CCN(CC)Cc1cc(C)c(O)c(N=Nc2ccc([N+](=O)[O-])cc2)c1C
inactive: [9] 101 % of control | [10] 99 % of control | dose: 400.0 mg/kg/injection, schedule: Q04DX002 (ip), vehicle: saline with Tween-80 97 % of control

Cn1c(=O)c2c(nc(Br)n2CC(=O)c2ccc([N+](=O)[O-])cc2)n(C)c1=O
inactive: dose: 100.0 mg/kg/injection, schedule: Q04DX003 (ip), vehicle: saline 95 % of control | dose: 200.0 mg/kg/injection, schedule: Q04DX003 (ip), vehicle: saline 96 % of control | dose: 400.0 mg/kg/injection, schedule: Q04DX003 (ip), vehicle: saline 99 % of control

NCC(=O)NCC(=O)NC1(C(=O)O)CCCC1 (H-Gly-Gly-[Ac5c]-OH)
inactive: [4] 102 % of control and 103 % of control | [5] 110 % of control and 113 % of control | dose: 200.0 mg/kg/injection, schedule: Q01DX005 (ip), vehicle: saline 110 % of control | dose: 400.0 mg/kg/injection, schedule: Q01DX005 (ip), vehicle: saline 116 % of control and 87 % of control

CCOC(=O)N1C(C)C2C=CC1C(S(=O)(=O)c1ccccc1)C2 (stereo unspecified)
inactive: [6] 97 % of control | [7] 102 % of control | [8] 97 % of control

C(#CP(C#Cc1ccccc1)C#Cc1ccccc1)c1ccccc1
inactive: [11] 103 % of control | [12] 92 % of control | [13] 94 % of control | dose: 400.0 mg/kg/injection, schedule: Q01DX009 (ip), vehicle: saline with Tween-80 86 % of control

O=C(N/N=C\c1cc([N+](=O)[O-])ccc1O)C(=O)N/N=C\c1cc([N+](=O)[O-])ccc1O
inactive: [20] 106 % of control | [22] 95 % of control | [23] 99 % of control

CN(C)CCCSc1ccccc1NC1=C(Cl)C(=O)C(Nc2ccccc2SCCCN(C)C)=C(Cl)C1=O
inactive: dose: 6.25 mg/kg/injection, schedule: Q01DX005 (ip), vehicle: Klucel (hydroxypropylcellulose) (HPC) 100 % of control | dose: 12.5 mg/kg/injection, schedule: Q01DX005 (ip), vehicle: Klucel (hydroxypropylcellulose) (HPC) 106 % of control | dose: 25.0 mg/kg/injection, schedule: Q01DX005 (ip), vehicle: Klucel (hydroxypropylcellulose) (HPC) 98 % of control | [6] 106 % of control | [7] 108 % of control | [8] 104 % of control

O=C1Nc2ccccc2C(=O)C1(Cc1ccccc1)C(=O)c1ccccc1 (stereo unspecified)
inactive: [18] 99 % of control | [19] 105 % of control | dose: 240.0 mg/kg/injection, schedule: Q01DX005 (ip), vehicle: Klucel (hydroxypropylcellulose) (HPC) 97 % of control

N=c1c2ncn(C3OC(COP(=O)(O)O)C(O)C3O)c2ncn1O (stereo unspecified)
inactive: [1] 97 % of control | [2] 97 % of control | [3] 95 % of control | dose: 400.0 mg/kg/injection, schedule: Q01DX009 (ip), vehicle: saline 97 % of control

C[N+](C)([O-])c1ccc(C(=O)C2CCCCC2)cc1
inactive: dose: 100.0 mg/kg/injection, schedule: Q04DX002 (ip), vehicle: saline 101 % of control | dose: 200.0 mg/kg/injection, schedule: Q04DX002 (ip), vehicle: saline 99 % of control | dose: 400.0 mg/kg/injection, schedule: Q04DX002 (ip), vehicle: saline 103 % of control

CCN(CC)C(=O)c1nc(-c2cccc3ccccc23)no1
inactive: [20] 100 % of control | [22] 97 % of control | [23] 98 % of control

COc1ccc(OC)c(NC(=O)CCCC(=O)C(C#N)c2ccccc2C)c1 (stereo unspecified)
inactive: [16] 105 % of control | [17] 105 % of control | [24] 104 % of control

C[C@]12CC[C@@H](OC(=O)N(CCCl)N=O)C[C@@H]1CC[C@@H]1[C@@H]2CC[C@]2(C)C(=O)CC[C@@H]12
inactive: dose: 25.0 mg/kg/injection, schedule: Q01DX005 (ip), vehicle: other 105 % of control | dose: 25.0 mg/kg/injection, schedule: Q01DX009 (ip), vehicle: other 121 % of control | dose: 31.2 mg/kg/injection, schedule: Q04DX003 (ip), vehicle: saline 111 % of control | dose: 50.0 mg/kg/injection, schedule: Q01DX005 (ip), vehicle: other 122 % of control | [21] 123 % of control | [11] 97 % of control | dose: 62.5 mg/kg/injection, schedule: Q04DX003 (ip), vehicle: saline 109 % of control | dose: 100.0 mg/kg/injection, schedule: Q01DX005 (ip), vehicle: other 114 % of control | [12] 100 % of control | dose: 125.0 mg/kg/injection, schedule: Q04DX003 (ip), vehicle: saline 108 % of control and 112 % of control | [13] 97 % of control | dose: 250.0 mg/kg/injection, schedule: Q04DX003 (ip), vehicle: saline 100 % of control

COc1ccccc1OCC(O)CNc1ccc(Cl)cc1C(=O)c1ccccc1 (stereo unspecified)
inactive: [16] 103 % of control | [17] 105 % of control | [24] 94 % of control

O=S(=O)(CCl)NCCCl
inactive: [11] 100 % of control | [12] 106 % of control | [13] 106 % of control

CCCCCCNC(C)C
inactive: [4] 104 % of control | [5] 101 % of control
